From the supplement of paper PMC10307832

Tests used:
Test in all cases: relative viability (nuclei count vs DMSO), 5 days (fraction); higher = more cells survive
[1] = compound: CS(=O)(=O)c1ccc(-c2cnc(N)c(C(=O)Nc3ccccc3)n2)cc1 [VE-821] + Cc1cc(Nc2cc(N3CCN(C)CC3)nc(Sc3ccc(NC(=O)C4CC4)cc3)n2)n[nH]1 [Tozasertib] (partner 0.1 µM)
How it was run: (§1)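 Medians of duplicate plates are given as relative viability. That measure is the nuclei count in treated wells divided by the count in vehicle wells. Counts were taken on 4× images of lung cancer cell lines in 1536-well plates, 5 days after pin-tool dosing the day after seeding with one drug alone or a fixed anchor-drug dose plus five library-drug doses (not always all listed) in √10 steps.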

[2] = compound: CS(=O)(=O)c1ccc(C(=O)Nc2ccc(Cl)c(-c3ccccn3)c2)c(Cl)c1 [Vismodegib] + CC(=O)Nc1cccc(-n2c(=O)n(C3CC3)c(=O)c3c(Nc4ccc(I)cc4F)n(C)c(=O)c(C)c32)c1 [Trametinib] (partner 0.02 µM)
How it was run: as §1

[3] = compound: CS(=O)(=O)c1ccc(C(=O)Nc2ccc(Cl)c(-c3ccccn3)c2)c(Cl)c1 [Vismodegib] + Nc1nc2[nH]cc(CCc3ccc(C(=O)N[C@@H](CCC(=O)O)C(=O)O)cc3)c2c(=O)[nH]1 [Pemetrexed] (partner 0.2 µM)
How it was run: as §1

[4] = compound: N#CC[C@H](C1CCCC1)n1cc(-c2ncnc3[nH]ccc23)cn1 [Ruxolitinib] + Cc1nc(Nc2ncc(C(=O)Nc3c(C)cccc3Cl)s2)cc(N2CCN(CCO)CC2)n1 [Dasatinib] (partner 0.075 µM)
How it was run: as §1

Cell Line | relative viability ([1]; first compound 0.08 µM) | relative viability ([1]; first compound 0.253 µM) | relative viability ([1]; first compound 0.8 µM) | relative viability ([1]; first compound 2.53 µM) | relative viability ([1]; first compound 8 µM) | relative viability ([2]; first compound 0.08 µM) | relative viability ([2]; first compound 0.253 µM) | relative viability ([2]; first compound 0.8 µM) | relative viability ([2]; first compound 2.53 µM) | relative viability ([2]; first compound 8 µM) | relative viability ([3]; first compound 0.08 µM) | relative viability ([3]; first compound 0.253 µM) | relative viability ([3]; first compound 0.8 µM) | relative viability ([3]; first compound 2.53 µM) | relative viability ([3]; first compound 8 µM) | relative viability ([4]; first compound 0.08 µM) | relative viability ([4]; first compound 0.253 µM) | relative viability ([4]; first compound 0.8 µM) | relative viability ([4]; first compound 2.53 µM) | relative viability ([4]; first compound 8 µM)
NCI-H2009 | 0.871 | 0.74 | 0.633 | 0.737 | 0.734 | 0.313 | 0.321 | 0.309 | 0.291 | 0.331 | 1.02 | 1.03 | 1.03 | 0.941 | 0.965 | 0.354 | 0.263 | 0.273 | 0.129 | 0.176
NCI-H2023 | 0.401 | 0.297 | 0.129 | 0.107 | 0.0977 | 0.568 | 0.538 | 0.605 | 0.47 | 0.498 | 0.256 | 0.216 | 0.219 | 0.235 | 0.248 | 0.616 | 0.336 | 0.575 | 0.332 | 0.354
NCI-H2085 | 0.875 | 0.759 | 0.494 | 0.459 | 0.368 | 0.551 | 0.549 | 0.594 | 0.621 | 0.539 | 0.78 | 0.887 | 0.944 | 0.98 | 0.865 | 0.278 | 0.268 | 0.282 | 0.293 | 0.299
NCI-H2087 | 0.241 | 0.204 | 0.248 | 0.212 | 0.198 | 0.199 | 0.183 | 0.166 | 0.172 | 0.213 | 0.692 | 0.657 | 0.651 | 0.643 | 0.657 | 0.836 | 0.661 | 0.675 | 0.431 | 0.52
NCI-H2126 | 0.911 | 0.911 | 0.671 | 0.703 | 0.518 | 0.558 | 0.519 | 0.568 | 0.58 | 0.565 | 0.717 | 0.664 | 0.661 | 0.623 | 0.681 | 0.599 | 0.526 | 0.715 | 0.616 | 0.453
NCI-H2170 | 0.744 | 0.727 | 0.662 | 0.794 | 0.477 | 0.89 | 0.897 | 1 | 0.857 | 0.987 | 0.254 | 0.272 | 0.304 | 0.253 | 0.284 | 0.691 | 0.681 | 0.627 | 0.599 | 0.483
NCI-H2228 | 0.312 | 0.2 | 0.212 | 0.256 | 0.156 | 0.368 | 0.42 | 0.484 | 0.417 | 0.585 | 0.342 | 0.401 | 0.291 | 0.316 | 0.333 | 0.399 | 0.457 | 0.484 | 0.401 | 0.198
NCI-H2342 | 0.434 | 0.489 | 0.45 | 0.415 | 0.365 | 1.02 | 0.738 | 0.843 | 0.764 | 0.728 | 0.769 | 0.821 | 0.81 | 0.611 | 0.719 | 0.315 | 0.299 | 0.341 | 0.31 | 0.319
NCI-H2347 | 0.506 | 0.6 | 0.272 | 0.498 | 0.506 | 0.311 | 0.286 | 0.265 | 0.301 | 0.288 | 0.423 | 0.423 | 0.459 | 0.435 | 0.458 | 0.295 | 0.341 | 0.297 | 0.29 | 0.333
NCI-H2405 | 0.824 | 0.714 | 0.713 | 0.726 | 0.742 | 0.671 | 0.616 | 0.592 | 0.598 | 0.638 | 1.13 | 1.03 | 1.03 | 1.01 | 1.01 |  | 0.192 | 0.214 | 0.189 | 0.218
NCI-H3122 | 0.389 | 0.383 | 0.369 | 0.418 | 0.306 | 0.247 | 0.254 | 0.216 | 0.247 | 0.202 | 0.201 | 0.199 | 0.228 | 0.184 | 0.19 | 0.852 | 0.725 | 0.932 | 0.634 | 0.286
PC-3 [JPC-3] | 0.956 | 0.819 | 0.881 | 0.805 | 0.787 | 0.695 | 0.713 | 0.636 | 0.615 | 0.729 | 1.05 | 1.03 | 1.13 | 1.16 | 0.651 | 0.684 | 1.06 | 0.989 | 0.872 | 0.883
PC-14 | 0.592 | 0.585 | 0.483 | 0.531 | 0.54 | 0.606 | 0.65 | 0.694 | 0.659 | 0.796 | 0.148 | 0.135 | 0.133 | 0.144 | 0.136 |  | 0.334 | 0.349 | 0.155 | 0.0674
RERF-LC-KJ | 0.539 | 0.478 | 0.483 | 0.349 | 0.274 | 0.847 | 0.823 | 0.84 | 0.826 | 0.862 | 0.491 | 0.454 | 0.468 | 0.508 | 0.479 | 0.886 | 0.742 | 0.942 | 0.737 | 0.635
SK-LU-1 | 0.383 | 0.286 | 0.274 | 0.208 | 0.193 | 0.441 | 0.473 | 0.54 | 0.441 | 0.444 | 0.971 | 1.03 | 0.982 | 0.909 | 0.845 | 0.206 | 0.166 | 0.166 | 0.135 | 0.164
SK-MES-1 | 0.968 | 0.818 | 0.828 | 0.561 | 0.325 | 0.574 | 0.504 | 0.553 | 0.558 | 0.545 | 0.853 | 0.928 | 0.871 | 0.972 | 0.825 | 0.313 | 0.372 | 0.315 | 0.199 | 0.285
SW 900 | 0.604 | 0.493 | 0.38 | 0.333 | 0.248 | 0.801 | 0.73 | 1.1 |  | 0.921 | 0.496 | 0.472 | 0.495 |  | 0.496 | 0.675 | 0.487 | 0.542 | 0.403 | 0.489
SW 1573 | 0.164 | 0.174 | 0.181 | 0.216 | 0.197 | 0.571 | 0.522 | 0.609 | 0.548 | 0.552 | 0.79 | 0.894 | 0.764 | 0.855 | 0.865 | 0.742 | 0.459 | 0.72 | 0.357 | 0.237
